Source: ChEMBL document CHEMBL1201862, “PubChem BioAssay data set” (2004)
Calls of active or inactive are those of the source.

How the values were obtained:
[1] = molecular target: G-protein coupled receptor 55 (Homo sapiens, UniProt Q9Y2T6); test: selective activators of receptor GPR55 – imaging, U2OS cells, beta-arrestin-GFP redistribution, primary screen (AID 1961); format: functional
[2] = molecular target: T1, Dual specificity protein phosphatase 3 (Homo sapiens, UniProt P51452); test: VHR1 phosphatase inhibitors, primary screen, biochemical, absorbance, uHTS (AID 1654)
T1 sequence (P51452 whole entry): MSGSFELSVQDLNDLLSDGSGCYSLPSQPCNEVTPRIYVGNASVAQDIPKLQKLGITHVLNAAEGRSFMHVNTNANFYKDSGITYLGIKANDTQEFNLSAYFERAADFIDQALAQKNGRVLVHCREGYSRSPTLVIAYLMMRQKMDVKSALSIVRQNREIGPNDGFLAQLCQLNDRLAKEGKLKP

[3] = molecular target: T1, Dual specificity protein phosphatase 3; test: VHR1 phosphatase inhibitors, biochemical (AID 1878)
[4] = molecular target: T1, Dual specificity protein phosphatase 3; test: VHR phosphatase inhibition, dose response, selectivity assay for STEP inhibitor project, biochemical (AID 602374); format: functional; conditions: read-out: IC50_Mean
[5] = molecular target: T2, Dual specificity protein phosphatase 6 (Rattus norvegicus, UniProt Q64346); test: inhibition of rat DUSP6 enzyme activity – biochemical, in vitro, primary screen (AID 425)
T2 sequence (Q64346 whole entry): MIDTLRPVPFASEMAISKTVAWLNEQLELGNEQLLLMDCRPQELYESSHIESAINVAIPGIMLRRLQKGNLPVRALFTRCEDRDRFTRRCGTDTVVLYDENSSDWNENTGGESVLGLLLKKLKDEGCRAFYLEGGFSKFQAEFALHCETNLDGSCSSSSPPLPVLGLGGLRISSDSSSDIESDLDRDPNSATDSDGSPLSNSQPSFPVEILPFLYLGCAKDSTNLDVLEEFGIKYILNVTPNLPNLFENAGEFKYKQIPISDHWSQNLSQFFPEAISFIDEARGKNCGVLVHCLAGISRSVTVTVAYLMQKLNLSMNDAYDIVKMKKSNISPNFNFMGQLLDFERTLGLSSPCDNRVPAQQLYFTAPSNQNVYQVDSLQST

[6] = molecular target: T3, Tyrosine-protein phosphatase non-receptor type 22 (Homo sapiens, UniProt Q9Y2R2); test: lymphoid phosphatase LYP inhibitors – biochemical, selectivity assay for STEP inhibitor project, dose response (AID 624241); format: functional
T3 sequence (Q9Y2R2 whole entry): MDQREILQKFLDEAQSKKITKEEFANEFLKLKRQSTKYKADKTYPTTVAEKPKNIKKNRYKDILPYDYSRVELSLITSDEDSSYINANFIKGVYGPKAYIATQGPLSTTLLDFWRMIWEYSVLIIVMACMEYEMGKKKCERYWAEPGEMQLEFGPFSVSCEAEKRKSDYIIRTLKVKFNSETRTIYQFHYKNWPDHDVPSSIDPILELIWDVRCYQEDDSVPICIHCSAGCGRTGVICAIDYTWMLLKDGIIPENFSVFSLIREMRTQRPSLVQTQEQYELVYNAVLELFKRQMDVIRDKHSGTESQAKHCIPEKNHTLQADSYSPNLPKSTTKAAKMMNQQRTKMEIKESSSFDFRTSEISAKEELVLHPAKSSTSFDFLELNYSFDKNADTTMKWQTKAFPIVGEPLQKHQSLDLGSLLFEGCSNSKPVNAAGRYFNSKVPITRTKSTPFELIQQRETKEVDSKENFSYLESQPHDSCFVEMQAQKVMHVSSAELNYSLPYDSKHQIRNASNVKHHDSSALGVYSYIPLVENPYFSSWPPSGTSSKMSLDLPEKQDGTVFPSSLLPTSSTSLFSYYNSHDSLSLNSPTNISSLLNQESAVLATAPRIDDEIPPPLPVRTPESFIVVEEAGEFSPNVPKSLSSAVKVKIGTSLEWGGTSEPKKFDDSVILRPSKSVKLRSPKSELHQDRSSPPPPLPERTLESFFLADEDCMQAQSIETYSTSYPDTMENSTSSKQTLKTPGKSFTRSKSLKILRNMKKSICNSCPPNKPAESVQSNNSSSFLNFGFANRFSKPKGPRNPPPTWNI

[7] = molecular target: T4, Tyrosine-protein phosphatase non-receptor type 5 (Homo sapiens, UniProt P54829); test: PTPN5 enzyme inhibition – biochemical, fluorescence intensity, uHTS hits, confirmation (AID 602372); format: functional; conditions: read-out: IC50_Mean
T4 sequence (P54829 whole entry): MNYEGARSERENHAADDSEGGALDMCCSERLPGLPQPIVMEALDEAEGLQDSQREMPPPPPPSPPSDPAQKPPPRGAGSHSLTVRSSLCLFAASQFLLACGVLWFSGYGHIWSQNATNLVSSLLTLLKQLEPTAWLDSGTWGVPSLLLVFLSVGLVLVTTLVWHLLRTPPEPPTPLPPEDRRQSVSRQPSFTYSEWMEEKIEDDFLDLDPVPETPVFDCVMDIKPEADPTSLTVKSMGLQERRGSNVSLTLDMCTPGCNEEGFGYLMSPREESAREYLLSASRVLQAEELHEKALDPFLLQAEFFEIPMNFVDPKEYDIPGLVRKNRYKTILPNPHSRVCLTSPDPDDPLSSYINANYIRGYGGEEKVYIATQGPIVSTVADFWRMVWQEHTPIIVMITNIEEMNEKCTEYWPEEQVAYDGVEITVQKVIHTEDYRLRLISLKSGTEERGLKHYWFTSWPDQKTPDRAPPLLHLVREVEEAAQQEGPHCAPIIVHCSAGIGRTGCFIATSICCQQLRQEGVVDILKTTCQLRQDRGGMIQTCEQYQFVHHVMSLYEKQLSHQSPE

[8] = molecular target: T5, Tyrosine-protein phosphatase non-receptor type 11 (Homo sapiens, UniProt Q06124); test: PTPN11 enzyme inhibitors – biochemical, selectivity assay for STEP inhibitor project, dose response (AID 602367); format: functional; conditions: read-out: IC50_Mean
T5 sequence (Q06124 whole entry): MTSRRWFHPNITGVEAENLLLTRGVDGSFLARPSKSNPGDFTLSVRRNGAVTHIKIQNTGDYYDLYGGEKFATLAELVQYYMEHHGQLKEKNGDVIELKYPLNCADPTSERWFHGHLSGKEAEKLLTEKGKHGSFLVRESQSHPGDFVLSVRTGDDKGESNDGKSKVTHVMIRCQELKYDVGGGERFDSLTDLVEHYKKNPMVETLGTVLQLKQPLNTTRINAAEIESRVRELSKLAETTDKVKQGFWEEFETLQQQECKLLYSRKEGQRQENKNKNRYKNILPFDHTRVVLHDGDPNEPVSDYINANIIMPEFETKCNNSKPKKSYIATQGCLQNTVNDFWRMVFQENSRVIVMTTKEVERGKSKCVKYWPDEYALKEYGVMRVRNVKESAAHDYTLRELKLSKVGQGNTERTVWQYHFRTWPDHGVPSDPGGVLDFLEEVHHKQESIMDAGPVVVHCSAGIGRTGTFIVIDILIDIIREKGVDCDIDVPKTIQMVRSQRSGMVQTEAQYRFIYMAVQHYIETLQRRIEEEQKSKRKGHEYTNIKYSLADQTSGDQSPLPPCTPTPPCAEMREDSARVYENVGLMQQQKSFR

[9] = molecular target: DNA dC->dU-editing enzyme APOBEC-3A (Homo sapiens, UniProt P31941); test: A3A deaminase inhibition for selectivity – biochemical, dose response (AID 504722); format: functional
Chain of DNA dC->dU-editing enzyme APOBEC-3A (P31941 whole entry): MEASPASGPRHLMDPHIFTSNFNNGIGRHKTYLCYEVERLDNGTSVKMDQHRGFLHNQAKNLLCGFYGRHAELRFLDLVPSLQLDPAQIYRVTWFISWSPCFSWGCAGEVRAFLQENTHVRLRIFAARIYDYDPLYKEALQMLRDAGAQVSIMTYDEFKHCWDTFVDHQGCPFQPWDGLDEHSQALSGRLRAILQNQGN

[10] = molecular target: DNA dC->dU-editing enzyme APOBEC-3G (Homo sapiens, UniProt Q9HC16); test: Dose Response confirmation of small molecule APOBEC3G DNA Deaminase Inhibitors via a fluorescence-based single-stranded DNA deaminase assay. [Related pubchem assays (depositor defined):AID493012, AID493028]; format: functional
Chain of DNA dC->dU-editing enzyme APOBEC-3G (Q9HC16 whole entry): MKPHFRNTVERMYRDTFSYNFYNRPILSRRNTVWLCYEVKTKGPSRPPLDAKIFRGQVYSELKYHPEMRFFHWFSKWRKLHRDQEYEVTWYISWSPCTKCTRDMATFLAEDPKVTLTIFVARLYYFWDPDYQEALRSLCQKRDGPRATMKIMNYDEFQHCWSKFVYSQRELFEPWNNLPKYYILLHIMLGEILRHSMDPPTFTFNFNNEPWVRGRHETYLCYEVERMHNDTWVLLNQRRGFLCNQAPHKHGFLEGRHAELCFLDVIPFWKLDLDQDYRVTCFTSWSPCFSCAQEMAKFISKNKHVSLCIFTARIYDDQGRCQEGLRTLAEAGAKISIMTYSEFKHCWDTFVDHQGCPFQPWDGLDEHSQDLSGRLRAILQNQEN

[11] = molecular target: Glucose-6-phosphate 1-dehydrogenase (Homo sapiens, UniProt P11413); test: inhibition of Homo sapiens G6PD, dose series – biochemical, fluorescence, selectivity assay for P. falciparum G6PD inhibitor project, dose response (AID 504792); format: functional
Chain of Glucose-6-phosphate 1-dehydrogenase (P11413 whole entry): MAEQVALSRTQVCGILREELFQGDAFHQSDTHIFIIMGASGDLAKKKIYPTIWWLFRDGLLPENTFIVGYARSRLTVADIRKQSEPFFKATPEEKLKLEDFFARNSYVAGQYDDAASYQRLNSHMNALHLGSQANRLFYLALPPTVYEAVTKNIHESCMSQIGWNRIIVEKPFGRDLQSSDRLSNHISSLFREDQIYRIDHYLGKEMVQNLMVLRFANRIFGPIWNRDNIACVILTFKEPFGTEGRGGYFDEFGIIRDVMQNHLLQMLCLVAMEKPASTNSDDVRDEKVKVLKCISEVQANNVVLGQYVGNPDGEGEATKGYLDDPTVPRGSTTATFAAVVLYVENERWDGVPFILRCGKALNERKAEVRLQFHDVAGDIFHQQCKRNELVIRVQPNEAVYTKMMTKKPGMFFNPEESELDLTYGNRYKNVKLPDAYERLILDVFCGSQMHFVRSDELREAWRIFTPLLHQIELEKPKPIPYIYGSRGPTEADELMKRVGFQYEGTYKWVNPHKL

Trypsin = Trypsin (Sus scrofa, UniProt P00761); test: trypsin protease activity blockade – biochemical, quenched peptide fluorescence, cherry-pick, selectivity assay for Rce1 protease inhibitor project, dose response (AID 488789)
Chain of Trypsin (P00761 whole entry): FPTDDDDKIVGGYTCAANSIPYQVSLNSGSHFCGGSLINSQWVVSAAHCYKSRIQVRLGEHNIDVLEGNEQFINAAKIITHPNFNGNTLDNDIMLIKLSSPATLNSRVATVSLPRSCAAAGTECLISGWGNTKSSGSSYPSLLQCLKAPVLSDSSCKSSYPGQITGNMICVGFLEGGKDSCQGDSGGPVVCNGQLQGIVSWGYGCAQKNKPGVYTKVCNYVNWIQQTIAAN

CAAX prenyl protease 2 = CAAX prenyl protease 2 (Saccharomyces cerevisiae S288c, UniProt Q03530); format: biochemical
Chain of CAAX prenyl protease 2 (Q03530 whole entry): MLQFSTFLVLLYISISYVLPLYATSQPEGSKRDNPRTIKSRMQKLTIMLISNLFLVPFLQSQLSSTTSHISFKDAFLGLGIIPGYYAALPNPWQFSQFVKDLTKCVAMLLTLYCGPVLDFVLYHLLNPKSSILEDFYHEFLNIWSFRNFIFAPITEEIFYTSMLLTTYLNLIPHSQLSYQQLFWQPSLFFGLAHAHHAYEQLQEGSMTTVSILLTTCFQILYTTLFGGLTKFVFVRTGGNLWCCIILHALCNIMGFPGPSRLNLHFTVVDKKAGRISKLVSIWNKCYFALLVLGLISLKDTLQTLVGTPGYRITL

[12] = molecular target: T6, Tyrosine-protein phosphatase non-receptor type 7 (Homo sapiens, UniProt P35236); test: redox-active compounds inhibiting HePTP phosphatase – biochemical, fluorescence, mechanism study (AID 2068); format: functional
T6 sequence (P35236 whole entry): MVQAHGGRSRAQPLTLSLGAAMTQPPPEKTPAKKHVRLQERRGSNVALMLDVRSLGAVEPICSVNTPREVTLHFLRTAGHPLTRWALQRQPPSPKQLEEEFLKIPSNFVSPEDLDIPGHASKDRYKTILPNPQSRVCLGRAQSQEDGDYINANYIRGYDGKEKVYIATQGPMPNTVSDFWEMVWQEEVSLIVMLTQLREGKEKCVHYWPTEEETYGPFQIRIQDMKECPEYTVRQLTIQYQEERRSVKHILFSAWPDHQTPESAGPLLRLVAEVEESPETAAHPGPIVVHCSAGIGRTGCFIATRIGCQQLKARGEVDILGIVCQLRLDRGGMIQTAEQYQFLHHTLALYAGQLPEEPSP

[13] = molecular target: T1, Dual specificity protein phosphatase 3; test: SAR VHR1 Fluorescent Assay for In Vitro dose response studies. [Related pubchem assays (depositor defined):AID1654, AID1661, AID1878, AID1992, AID2004, AID2070, AID2085]; format: functional
[14] = NIH-3T3 fibroblast cytotoxicity, dose response, cytotoxicity control, cell-based, fluorescence, Alamar Blue, secondary assay (AID 2327); format: functional;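 further: NIH-3T3 mouse fibroblasts cultured with fluconazole at 8 µg/mL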
Streptokinase A = molecular target: T7, Streptokinase A (Streptococcus pyogenes serotype M1, UniProt P10520); test: viability-normalized secreted streptokinase activity reduction – plasminogen activation absorbance, OD405, dose response (AID 1914); format: functional, Streptococcus pyogenes M1 GAS;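 further: secreted streptokinase activity via plasminogen activation per viability signal from cell pellet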
T7 sequence (P10520 whole entry): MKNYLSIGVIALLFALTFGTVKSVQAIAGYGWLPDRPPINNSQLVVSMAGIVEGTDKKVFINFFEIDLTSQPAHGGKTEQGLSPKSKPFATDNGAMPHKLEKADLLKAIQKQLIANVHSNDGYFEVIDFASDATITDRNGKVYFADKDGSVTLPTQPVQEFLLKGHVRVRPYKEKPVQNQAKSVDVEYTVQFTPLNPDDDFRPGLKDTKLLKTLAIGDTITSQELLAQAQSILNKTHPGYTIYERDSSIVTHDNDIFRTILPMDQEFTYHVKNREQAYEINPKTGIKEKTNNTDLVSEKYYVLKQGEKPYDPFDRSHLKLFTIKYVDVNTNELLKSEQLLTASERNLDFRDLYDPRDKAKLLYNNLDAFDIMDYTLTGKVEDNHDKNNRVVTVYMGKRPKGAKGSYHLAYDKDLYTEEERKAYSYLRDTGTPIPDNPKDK

[15] = NIH3T3 cell viability loss – ATP luminescence, mouse fibroblasts, counter-screen, dose response (AID 2010); format: functional, cell-based;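 further: cells exposed to compound for about 90 hours before reading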
[16] = Trypanosoma cruzi growth suppression in host cells – NIH3T3 host cells, beta-gal luminescence, confirmation (AID 2044); format: functional, cell-based;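 further: intracellular parasites grown in NIH/3T3 mouse fibroblasts as host cells; luminescent beta-galactosidase reporter signal from transgenic T. cruzi replicating inside host cells; inhibitors lower the luminescence signal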
[17] = molecular target: ATP-dependent molecular chaperone HSP82 (Candida albicans (strain WO-1) (Yeast), UniProt C4YTQ8); test: steroid-induced GRE reporter decrease in yeast – S. cerevisiae, luminescence, Hsp90 inhibitor project, dose response (AID 2400); format: functional, cell-based;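 further: beta-galactosidase luminescence from glucocorticoid response element reporter as proxy for Hsp90 function; inhibitor potency where signal loss means Hsp90 inhibition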
Chain of ATP-dependent molecular chaperone HSP82 (C4YTQ8 whole entry): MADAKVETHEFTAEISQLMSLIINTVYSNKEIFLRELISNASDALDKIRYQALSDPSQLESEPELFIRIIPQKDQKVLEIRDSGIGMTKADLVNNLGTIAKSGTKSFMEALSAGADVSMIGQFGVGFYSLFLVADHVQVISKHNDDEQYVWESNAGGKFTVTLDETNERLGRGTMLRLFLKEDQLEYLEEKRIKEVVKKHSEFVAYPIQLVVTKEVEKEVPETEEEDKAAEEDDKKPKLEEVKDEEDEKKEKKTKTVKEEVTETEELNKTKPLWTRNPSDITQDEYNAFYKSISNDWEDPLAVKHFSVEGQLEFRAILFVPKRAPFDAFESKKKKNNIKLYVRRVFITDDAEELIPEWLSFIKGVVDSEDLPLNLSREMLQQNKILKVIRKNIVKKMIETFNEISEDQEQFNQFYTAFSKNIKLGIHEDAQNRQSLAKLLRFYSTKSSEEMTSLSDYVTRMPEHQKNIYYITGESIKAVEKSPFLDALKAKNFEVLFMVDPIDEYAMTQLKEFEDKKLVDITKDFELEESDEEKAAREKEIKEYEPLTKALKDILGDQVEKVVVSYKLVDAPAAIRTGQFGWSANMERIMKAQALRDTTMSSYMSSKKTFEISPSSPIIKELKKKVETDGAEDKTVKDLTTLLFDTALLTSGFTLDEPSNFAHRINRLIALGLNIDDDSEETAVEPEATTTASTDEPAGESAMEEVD

cells [18] = format: functional, cell-based
INS1 = test: INS-1E survival protection against cytokine death – cell-based, luminescence, retest, dose response (AID 449756); format: functional; conditions: Rattus norvegicus;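 further: cell death triggered by IL-1 beta plus TNF-alpha plus IFN-gamma mixture; protective hits raise ATP signal compared with cytokine alone wells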
[19] = molecular target: T8, Serine/threonine-protein phosphatase (Candida dubliniensis (strain CD36 / CBS 7987 / NCPF 3949 / NRRLY-17841) (Yeast), UniProt B9W6M3); test: blockers of CaCl2-induced CDRE-lacZ signaling – S. cerevisiae, luminescence, secondary, dose response (AID 2388); format: functional, cell-based;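 further: yeast reporter cells carrying a calcineurin-responsive lacZ construct stimulated with calcium chloride; luminescent beta-galactosidase reporter signal in whole cells rather than isolated phosphatase activity; potency for inhibition where a drop in reporter signal means calcineurin blockade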
T8 sequence (B9W6M3 whole entry): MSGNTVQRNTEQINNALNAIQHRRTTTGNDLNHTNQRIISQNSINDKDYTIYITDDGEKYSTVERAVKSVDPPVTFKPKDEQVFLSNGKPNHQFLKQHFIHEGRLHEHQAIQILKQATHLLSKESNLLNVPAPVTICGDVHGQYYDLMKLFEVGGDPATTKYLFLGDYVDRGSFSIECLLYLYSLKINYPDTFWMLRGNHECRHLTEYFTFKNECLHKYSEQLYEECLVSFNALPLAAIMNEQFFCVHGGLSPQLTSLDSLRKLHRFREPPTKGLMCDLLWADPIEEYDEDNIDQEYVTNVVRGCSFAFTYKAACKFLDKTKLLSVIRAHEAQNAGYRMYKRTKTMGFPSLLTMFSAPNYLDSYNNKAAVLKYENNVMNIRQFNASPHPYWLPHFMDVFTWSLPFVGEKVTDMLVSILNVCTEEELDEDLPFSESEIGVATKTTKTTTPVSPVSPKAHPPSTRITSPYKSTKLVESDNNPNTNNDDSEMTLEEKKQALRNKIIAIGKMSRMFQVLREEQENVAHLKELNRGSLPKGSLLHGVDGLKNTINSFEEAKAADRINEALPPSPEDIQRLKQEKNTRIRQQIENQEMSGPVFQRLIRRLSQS

[20] = fluconazole-exposed Candida albicans growth modulators – fluorescence, retest, confirmation (AID 2467); format: functional, cell-based
[21] = system: Streptococcus sp. 'group A'; test: Streptococcus pyogenes SK(-)GAS viability under kanamycin – luminescence, BacTiterGlo, confirmation, counter-screen for streptokinase expression inhibitor project, dose response (AID 1900); format: functional, organism-based
Streptococcus = test: GAS UMAA2166 growth inhibition – luminescence, BacTiterGlo, counter-screen for streptokinase expression inhibitor project, dose response (AID 1915); format: functional, organism-based;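 further: potency for reduction of bacterial viability or growth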
cells [22] = format: functional, cell-based; remark: listed apart in the source

Chain of G-protein coupled receptor 55 (Q9Y2T6 whole entry): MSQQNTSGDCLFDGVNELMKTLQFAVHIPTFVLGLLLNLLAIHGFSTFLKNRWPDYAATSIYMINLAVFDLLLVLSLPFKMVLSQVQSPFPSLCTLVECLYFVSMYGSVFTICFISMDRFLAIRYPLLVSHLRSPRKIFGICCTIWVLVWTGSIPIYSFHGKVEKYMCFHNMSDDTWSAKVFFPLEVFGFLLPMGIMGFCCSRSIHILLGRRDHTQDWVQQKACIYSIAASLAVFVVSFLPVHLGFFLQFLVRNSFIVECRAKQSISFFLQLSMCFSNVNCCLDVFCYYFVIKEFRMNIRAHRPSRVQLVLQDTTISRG

Cc1cc2ncn(-c3nnnn3-c3ccccc3)c2cc1C
EC50 [1]: 20 µM (inactive)

CN1CCN(C(=S)C(=O)Nc2ccc(Br)cc2)CC1
IC50 [2]: 4 µM (active)
IC50 [3]: 8.52 µM (active)
IC50 [4]: 0.386 µM (active)
IC50 [5]: > 158 µM (not active)
IC50 [6]: 9.73 µM (active)
IC50 [7]: 6.57 µM (active)
IC50 [8]: 0.431 µM (active)
IC50 [9]: > 100 µM (inactive)
IC50 [10]: 5.11 µM (active)
IC50 [11]: > 80 µM (inactive)

C=CCOc1ccc(-c2nnc(S)o2)cc1
AC50 (Trypsin): 3.91 µM (active)
AC50 (CAAX prenyl protease 2): 22.6 µM (active)

O=C(Nc1ccc2nc(-c3ccco3)c(-c3ccco3)nc2c1)N1CCC(c2ccccc2)C1 (stereo not drawn)
IC50 [12]: 0.55 µM (active)
IC50 [13]: 14.7 µM (active)

CC1CCN(Cc2c(C(=O)N/N=C/c3cc(Cl)ccc3O)nnn2-c2nonc2N)CC1
EC50 [14]: > 150 µM (inconclusive)
EC50 (Streptokinase A): 31 µM (active)
EC50 [15]: 5.57 µM (active)
EC50 [16]: 0.541 µM (active)
EC50 [17]: > 150 µM (inactive)
EC50 (cells [18]): 10.7 µM (active)
AC50 (INS1): 0.457 µM (active)
EC50 [19]: > 180 µM (inactive)
EC50 [20]: 0.508 µM (active)
EC50 [21]: 27.3 µM (active)
EC50 (Streptococcus): > 150 µM (not active)
EC50 (cells [22]): > 350 µM (not active)
EC50 [1]: 4.16 µM (active)
